According to patent US9695132B2, “Heteroaryl compounds and uses thereof” (Celgene CAR LLC, priority 2013, dated 2017):
Read-outs that look alike come from different tables or passages of the source.

Tests used:
FGFR4-WT = FGFR4-WT (Homo sapiens (Human), UniProt P22455); test: Omnia assay for potency assessment against FGFR4 enzyme; assay type: biochemical
Description: A 10× stock solution of FGFR4-WT (PR4380C), (from Invitrogen, Carlsbad, Calif.) corresponding to method a in Table 7, was prepared as described below. Alternatively, a 10× stock solution of FGFR4-WT (F01-11G), (SignalChem, Richmond, BC) corresponding to method b in Table 7, was prepared as described below. A solution of 1.4×ATP (AS001A) and 5× Tyr-Sox conjugated peptide substrate (KNZ3101) were prepared in 1× kinase reaction buffer consisting of 20 mM Tris, pH 7.5, 5 mM MgCl2, 1 mM EGTA, 5 mM β-glycerophosphate, 5% glycerol (10× stock, KB002A) and 0.2 mM DTT (DS001A). […] The serially diluted compounds were prepared on a Tecan EVO100. A second addition of 10 μl of Tyr-Sox FGFR4 substrate was added to each well and the kinase reactions were started with the addition of 35 μL of 1.4×ATP. The reactions were monitored every 71 seconds for 240 minutes at λex360/λem485 in a Synergy plate reader from BioTek (Winooski, Vt.).

pFGFR4 in Huh7 cells = pFGFR4 in Huh7 cells (Homo sapiens (Human), UniProt P22455); test: FGFR4 signaling, Meso Scale assay (MSD), Method B, Huh7
pFGFR4 in Huh7 cells, sequence (P22455 22-802): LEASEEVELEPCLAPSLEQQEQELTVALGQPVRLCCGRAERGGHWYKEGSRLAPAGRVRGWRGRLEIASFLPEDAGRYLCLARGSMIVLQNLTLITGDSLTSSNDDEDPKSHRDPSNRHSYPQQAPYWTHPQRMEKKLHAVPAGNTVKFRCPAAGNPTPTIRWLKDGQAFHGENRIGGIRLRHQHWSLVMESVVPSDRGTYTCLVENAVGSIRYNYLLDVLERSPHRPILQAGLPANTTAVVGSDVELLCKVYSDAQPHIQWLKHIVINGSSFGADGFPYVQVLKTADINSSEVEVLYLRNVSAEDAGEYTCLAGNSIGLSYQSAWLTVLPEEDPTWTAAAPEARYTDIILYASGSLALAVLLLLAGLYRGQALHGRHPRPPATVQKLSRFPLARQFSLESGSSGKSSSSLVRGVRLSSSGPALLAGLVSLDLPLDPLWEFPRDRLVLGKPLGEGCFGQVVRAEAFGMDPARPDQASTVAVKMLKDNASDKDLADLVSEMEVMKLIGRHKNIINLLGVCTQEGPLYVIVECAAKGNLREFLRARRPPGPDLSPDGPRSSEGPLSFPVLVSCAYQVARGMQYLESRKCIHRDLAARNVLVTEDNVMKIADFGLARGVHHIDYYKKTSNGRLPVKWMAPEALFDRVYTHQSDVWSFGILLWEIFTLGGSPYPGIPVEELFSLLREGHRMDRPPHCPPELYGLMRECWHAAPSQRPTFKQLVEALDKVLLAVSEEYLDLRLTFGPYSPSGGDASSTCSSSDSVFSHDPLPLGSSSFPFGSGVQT
Description: Huh7 cells were grown in DMEM (Invitrogen, Carlsbad, Calif.) supplemented with 10% FBS (Invitrogen) and 1% Penicillin-Streptomycin (P/S, Lonza, Walkersville, Md.).
For the MSD and ELISA assays, total FGFR4 antibodies were obtained from R&D Systems (Minneapolis, Minn.) and used at 1:500. […] Phospho-FGFR antibodies were obtained from Cell Signaling (Danvers, Mass.) or R&D Systems and used at 1:1000. The phopho-FGFR antibody from Cell Signaling was used for immunoblotting, whereas the phopho-FGFR antibody from R&D was used for MSD and ELISA assays. Secondary antibodies were used at 1:10,000. The goat anti-mouse IgG IRDye 800CW antibody was obtained from LiCor Biosciences (Lincoln, Nebr.) and the goat anti-rabbit IgG Alexa Fluor 680 was obtained from Invitrogen. The anti-rabbit Sulfo-tag and anti-streptavidin Sulfo-tag antibodies was obtained from Meso Scale Discovery (Gaithersburg, Md.), and were used at 1:1000 and 1:5000, respectively.
After treatment, the cells were washed with cold PBS (Invitrogen), and were immediately lysed by freeze/thawing 3× in 32 μL of cold Cell Extraction Buffer (Invitrogen), which was supplemented with Complete Protease inhibitors (Roche) and PhosphoSTOP (Roche) phosphatase inhibitors.
MSD plates (Meso Scale Discovery) were coated with total FGFR-4 antibodies overnight at 4° C. A lysate (25 μL) was added to the MSD plate overnight at 4° C. The MSD signals were obtained by incubating with a phospho-FGFR antibody (R&D Systems) and an anti-rabbit sulfo-tag antibody (Meso Scale), for 2 hr at room temperature. […] The data was fitted using a sigmoidal curve analysis program (Graph Pad Prism version 5) with variable Hill slope to determine the EC50 values.

[1] = method a: [FGFR4-WT]=10 nM (Invitrogen), [ATP]=300 uM, [Y10-Sox]=10 uM

FGFR4-WT, sequence (P22455 22-802): as above

Structure (SMILES) | IC50 (FGFR4-WT; [1]) | EC50 (pFGFR4 in Huh7 cells) | IC50 (FGFR4-WT) | IC50 (FGFR4-WT; method b: [FGFR4-WT]=2.5 nM (SignalChem), [ATP]=250 uM, [Y10-Sox]=10 uM)
C=CC(=O)Nc1ccccc1Nc1ncc2c(n1)N(Cc1cccnc1)C(=O)N(c1cc(OC)cc(OC)c1)C2 [Compound I-44] | < 100 nM | < 100 nM |  | 
C=CC(=O)N(C)C1COCC1Nc1ncc2c(n1)N(C)C(=O)N(c1c(Cl)c(OC)cc(OC)c1Cl)C2 (stereo not shown) [Compound I-218] | > 1000 nM | > 1000 nM |  | 
C=CC(=O)Nc1cc(-c2nnn(C)n2)ccc1Nc1ncc2c(n1)N(C)C(=O)N(c1cc(OC)cc(OC)c1)C2 [Compound I-146] | < 100 nM | 101 to 500 nM |  | 
C=CC(=O)N[C@H]1COC[C@H]1Nc1ncc2c(n1)N(C)C(=O)N(c1c(Cl)c(OC)cc(OC)c1Cl)C2 [Compound I-186] | < 100 nM | < 100 nM |  | 
C=CC(=O)NC1COCC1Nc1ncc2c(n1)N(C)C(=O)N(c1cc(OC)c(OC)c(OC)c1)C2 (stereo not shown) [Compound I-207] | > 1000 nM | > 1000 nM |  | 
C=CC(=O)Nc1ccccc1Nc1ncc2c(n1)N(C)C(=O)N(c1c(Cl)cccc1Cl)C2 [Compound I-83] | 101 to 500 nM | 101 to 500 nM |  | 
C=CC(=O)N[C@H]1CCCC[C@H]1Nc1ncc2c(n1)N(C)C(=O)N(c1cc(OC)c(OC)c(OC)c1)C2 [Compound I-220] | > 1000 nM | > 1000 nM |  | 
C=CC(=O)Nc1ccc(C(F)(F)F)cc1Nc1ncc2c(n1)N(C)C(=O)N(c1cc(OC)cc(OC)c1)C2 [Compound I-50] | < 100 nM | 101 to 500 nM |  | 
C=CC(=O)Nc1ccccc1Nc1ncc2c(n1)N(CCF)C(=O)N(c1cc(OC)cc(OC)c1Cl)C2 [Compound I-110] | < 100 nM | < 100 nM |  | 
C=CC(=O)NC1COCC1Nc1ncc2c(n1)N(Cc1cc[nH]n1)C(=O)N(c1c(Cl)c(OC)cc(OC)c1Cl)C2 (stereo not shown) [Compound I-216] | < 100 nM | 101 to 500 nM |  | 
C=CC(=O)Nc1cc(C)ccc1Nc1ncc2cc(-c3c(Cl)c(OC)cc(OC)c3Cl)c(=O)n(C)c2n1 [Compound I-243] | < 100 nM | < 100 nM |  | 
C=CC(=O)Nc1cc(C)ccc1Nc1ncc2c(n1)N(C)C(=O)N(c1cc(OC)cc(OC)c1)C2 [Compound I-41] | < 100 nM | 101 to 500 nM |  | 
C=CC(=O)NC1COCC1Nc1ncc2c(n1)N(C)C(=O)N(c1cc(C(=O)Nc3cccc(C(C)(C)C)c3)ccc1Cl)C2 (stereo not shown) [Compound I-247] | 101 to 500 nM | < 100 nM |  | 
C=CC(=O)NC1COCC1Nc1ncc2c(n1)N(C)C(=O)N(c1c(F)c(OC)cc(OC)c1F)C2 (stereo not shown) [Compound I-198] | < 100 nM | < 100 nM |  | 
C=CC(=O)NC1CCCCC1Nc1ncc2c(n1)N(CC(F)F)C(=O)N(c1c(F)c(OC)cc(OC)c1F)C2 (stereo not shown) [Compound I-115] | 101 to 500 nM | 101 to 500 nM |  | 
C=CC(=O)NC1CN(C2CCN(C)CC2)CC1Nc1ncc2c(n1)N(C)C(=O)N(c1c(Cl)c(OC)cc(OC)c1Cl)C2 (racemic) [Compound I-154] | 101 to 500 nM | > 1000 nM |  | 
C=CC(=O)Nc1cc(C(F)(F)F)ccc1Nc1ncc2c(n1)N(C)C(=O)N(c1cc(OC)cc(OC)c1)C2 [Compound I-42] | < 100 nM | < 100 nM |  | 
C=CC(=O)Nc1ccccc1Nc1ncc2c(n1)N(CC#N)C(=O)N(c1cc(OC)cc(OC)c1)C2 [Compound I-48] | < 100 nM | 101 to 500 nM |  | 
C=CC(=O)N[C@H]1COCC[C@H]1Nc1ncc2c(n1)N(C)C(=O)N(c1c(Cl)c(OC)cc(OC)c1Cl)C2 [Compound I-140] | 101 to 500 nM | 101 to 500 nM |  | 
C=CC(=O)Nc1ccccc1Nc1ncc2c(n1)N(CCF)C(=O)N(c1cc(OC)cc(OC)c1)C2 [Compound I-102] | < 100 nM | < 100 nM |  | 
C=CC(=O)NC1COCC1Nc1ncc2c(n1)N(C)C(=O)N(c1c(F)c(OC)cc(OC)c1Cl)C2 (stereo not shown) [Compound I-206] | < 100 nM | < 100 nM |  | 
C=CC(=O)NC1CCCCC1Nc1ncc2c(n1)N(Cc1ccnc(N)c1)C(=O)N(c1c(Cl)c(OC)cc(OC)c1Cl)C2 (stereo not shown) [Compound I-133] | < 100 nM | < 100 nM |  | 

Structure (SMILES) | IC50 (FGFR4-WT; [1]) | EC50 (pFGFR4 in Huh7 cells) | IC50 (FGFR4-WT) | IC50 (FGFR4-WT; method b: [FGFR4-WT]=2.5 nM (SignalChem), [ATP]=250 uM, [Y10-Sox]=10 uM)
C=CC(=O)NC1CCCCC1Nc1ncc2c(n1)N(Cc1csc(C)n1)C(=O)N(c1c(Cl)c(OC)cc(OC)c1Cl)C2 (stereo not shown) [Compound I-137] | < 100 nM | 101 to 500 nM |  | 
C=CC(=O)NC1COCC1Nc1ncc2c(n1)N(C)C(=O)N(c1c(Cl)c(OC)cc(OC)c1Cl)C2 (stereo not shown) [Compound I-126] | < 100 nM | < 100 nM |  | 
C=CC(=O)NC1COCC1Nc1ncc2c(n1)N(C)C(=O)N(c1ccc(OC)cc1)C2 (stereo not shown) [Compound I-209] | > 1000 nM | > 1000 nM |  | 
C=CC(=O)NC1COCC1Nc1ncc2c(n1)N(C)C(=O)N(c1c(Cl)c(OCC)cc(OCC)c1Cl)C2 (stereo not shown) [Compound I-205] | 101 to 500 nM | 101 to 500 nM |  | 
C=CC(=O)Nc1ccccc1Nc1ncc2c(n1)N(C1CCCNC1)C(=O)N(c1cc(OC)cc(OC)c1)C2 (stereo not shown) [Compound I-43] | < 100 nM | > 1000 nM |  | 
C=CC(=O)N[C@H]1CCCC[C@H]1Nc1ncc2c(n1)N(C)C(=O)N(c1c(F)c(OC)cc(OC)c1F)C2 [Compound I-143] | < 100 nM | 101 to 500 nM |  | 
C=CC(=O)NC1CS(=O)(=O)CC1Nc1ncc2c(n1)N(C)C(=O)N(c1c(Cl)c(OC)cc(OC)c1Cl)C2 (stereo not shown) [Compound I-200] | < 100 nM | 101 to 500 nM |  | 
C=CC(=O)Nc1ccccc1Nc1ncc2c(n1)NC(=O)N(c1cc(OC)cc(OC)c1)C2 [Compound I-125] | 101 to 500 nM | > 1000 nM |  | 
C=CC(=O)N[C@H]1CCCC[C@H]1Nc1ncc2cc(-c3c(Cl)c(OC)cc(OC)c3Cl)c(=O)n(C)c2n1 [Compound I-223] |  | < 100 nM | < 100 nM | 
C=CC(=O)Nc1ccccc1Nc1ncc2c(n1)N(Cc1cn[nH]c1)C(=O)N(c1c(Cl)c(OC)cc(OC)c1Cl)C2 [Compound I-124] | < 100 nM | < 100 nM |  | 
C=CC(=O)NC1CCCCC1Nc1ncc2c(n1)N(Cc1ccn(C)c(=O)c1)C(=O)N(c1c(Cl)c(OC)cc(OC)c1Cl)C2 (stereo not shown) [Compound I-132] | < 100 nM | 101 to 500 nM |  | 
C=CC(=O)NC1COCC1Nc1ncc2c(n1)N(Cc1ccn(C)n1)C(=O)N(c1c(Cl)c(OC)cc(OC)c1Cl)C2 (stereo not shown) [Compound I-215] | < 100 nM | < 100 nM |  | 
C=CC(=O)Nc1ccccc1Nc1ncc2c(n1)N(C)C(=O)N(c1c(F)c(OC)cc(OC)c1F)C2 [Compound I-131] | < 100 nM | < 100 nM |  | 
C=CC(=O)N[C@H]1CCCC[C@H]1Nc1ncc2c(n1)N(C)C(=O)N(c1c(Cl)c(OCC)cc(OCC)c1Cl)C2 [Compound I-219] | 101 to 500 nM | 501 to 999 nM |  | 
C=CC(=O)NC1CN(c2ccncn2)CC1Nc1ncc2c(n1)N(C)C(=O)N(c1c(Cl)c(OC)cc(OC)c1Cl)C2 (stereo not shown) [Compound I-201] | < 100 nM | 101 to 500 nM |  | 
C=CC(=O)Nc1ccccc1Nc1ncc2cc(-c3c(Cl)c(OC)cc(OC)c3Cl)c(=O)n(C)c2n1 [Compound I-244] | < 100 nM | < 100 nM |  | 
C=CC(=O)Nc1ccccc1Nc1ncc2c(n1)N(CC1CC1)C(=O)N(c1cc(OC)cc(OC)c1)C2 [Compound I-98] | < 100 nM | < 100 nM |  | 
C=CC(=O)NC1COCC1Nc1ncc2c(n1)N(Cc1cnn(C)c1)C(=O)N(c1c(Cl)c(OC)cc(OC)c1Cl)C2 (stereo not shown) [Compound I-213] | < 100 nM | < 100 nM |  | 
C=CC(=O)Nc1cc(-c2nnnn2C)ccc1Nc1ncc2c(n1)N(C)C(=O)N(c1c(Cl)c(OC)cc(OC)c1Cl)C2 [Compound I-153] | < 100 nM | < 100 nM |  | 
C=CC(=O)Nc1ccccc1Nc1ncc2c(n1)N(Cc1cscn1)C(=O)N(c1cc(OC)cc(OC)c1)C2 [Compound I-64] | < 100 nM | 101 to 500 nM |  | 
C=CC(=O)Nc1ccccc1Nc1ncc2c(n1)N(Cc1cccc(C(N)=O)c1)C(=O)N(c1cc(OC)cc(OC)c1)C2 [Compound I-97] | < 100 nM | 101 to 500 nM |  | 
C=CC(=O)Nc1ccccc1Nc1ncc2c(n1)N(Cc1cccc(N)c1)C(=O)N(c1c(Cl)c(OC)cc(OC)c1Cl)C2 [Compound I-26] |  | < 100 nM |  | < 100 nM
